Where “and” joins values, the source holds several entries; their conditions need not be identical. Identical values can stand only once.
Assay: Anticancer human tumor 997537-175-T-J1-PDC patient-derived colon adenocarcinoma cell line growth inhibition [POLQ]
Settings: 997537-175-T-J1-PDC complex spheroid viability, combination with POLQ inhibitors; for viability, T/C: stronger effect = lower value
Protocol: Multicellular complex tumor spheroid response to Polymerase (POL) inhibitors (novobiocin, ART-558, RP6685) in combination with a variety of drugs and investigational agents in selected tumor cell lines
The POL inhibitors (novobiocin, ART-558, and RP6685) were evaluated both individually and in combination with standard of care and investigational anticancer small molecules within a complex spheroid model of solid tumors. . Complex spheroids include a stromal component modeled by human endothelial cells (HUVEC) and fibroblasts modeled by human mesenchymal stem cells (MSCs). The concentration ranges selected for each drug and investigational agent were based upon clinically achievable concentrations if the clinical Cmax of the agent was known.
Compounds. The drugs and investigational agents: novobiocin (NSC847541), ART-558 (NSC835418), RP-6685 (NSC848927), peposertib (NSC802822), ceralasertib (NSC780249), elimusertib (NSC800525), camonsertib (NSC841442), AZD-1390 (NSC803789), olaparib (NSC753686), talazoparib (NSC767125), rucaparib (NSC756644), sotorasib (NSC818433), MRTX-1133 (NSC836407), SN-38 (NSC673596), topotecan (NSC609699), epotoside (NSC141540), doxorubicin (NSC123127), gemcitabine (NSC613327), 5-fluorouracil (NSC19893), paclitaxel (NSC125973), vemurafenib (NSC761431), MSA-2 (NSC828583), SN-011 (NSC837082), adavosertib (NSC754352), prexasertib (NSC758257), carboplatin (NSC241240) and oxaliplatin (NSC266046), were obtained from the National Cancer Institute (NCI) Developmental Therapeutics Program Chemical Repository (21). The FDA-approved anticancer drug set is available from the Developmental Therapeutics Program at https://dtp.cancer.gov/organization/dscb/obtaining/. […] The stock solutions were prepared in dimethyl sulfoxide (DMSO, Sigma-Aldrich, St. Louis, MO, cat. D2650), except for the platinum compounds which were prepared in saline (Quality Biological, Gaithersburg, MD, cat. 114-055-101), at 800-fold the tested concentration and stored at -70 degrees C prior to their use. All drugs and investigational agents were tested over a range starting from a high concentration at or near the clinical Cmax and decreasing in half-log increments. If the clinical Cmax for an agent had not been determined, the highest concentration tested was 10 microM, except for SN-38, which was tested at a high concentration of 1 microM.
Cell Culture. All cells were maintained in an incubator at 37 degrees C and 5% CO2 with 95% humidity. The PDC lines were cultured according to standard operating procedures established by the NCI PDMR (https://pdmr.cancer.gov). Table 3 of the manuscript, lists the cell lines along with the number of the three cell types plated to form the mct-spheroids and media for tumor cell growth. After thawing, all PDC lines, except 997537-175-T-J1-PDC and 415267-285-R-J2-PDC, were cultured in Matrigel-coated flasks prepared with a working solution of 1X Ham's F-12 nutrient mix, without supplementation (Thermo Fisher Scientific, cat. 11765054), 100 U/mL penicillin-streptomycin (Thermo Fisher Scientific, cat. 15140122), and 2.5% Matrigel (Corning Inc., Corning, NY, cat. 354248) for the first three passages. The two PDC lines 997537-175-T-J1-PDC and 415267-285-R-J2-PDC were cultured on uncoated flasks. The 857933-349-R-J2-PDC line was cultured in 6C/Colon 1B media containing advanced DMEM/F-12 (Thermo Fisher Scientific, cat. 12634028), 10 mM HEPES (Thermo Fisher Scientific, cat. 15630080), 1X GlutaMAX supplement (Thermo Fisher Scientific, cat. 35050061), 0.1 mg/mL primocin (InvivoGen, San Diego, CA, cat. ant-pm-2), 10% defined fetal bovine serum, heat inactivated (HyClone Laboratories Inc., Logan, UT, cat. SH30070.03HI), 50% L-WRN conditioned media (ATCC, cat. CRL-3276), 1.25 mM N-Acetyl-L-cysteine (Sigma-Aldrich, cat. A9165), 10 mM nicotinamide (Sigma-Aldrich, cat. N0636), 1X B-27 supplement (Thermo Fisher Scientific, cat. 17504044), 1X N-2 supplement (Thermo Fisher Scientific, cat. […]

[1] = compound alone, run of 12/05/2023
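Note: luminescence signal used as a surrogate for viable cells; spheroids exposed to drugs for seven days before readout.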

Row | IC50 (compound alone, run of 11/27/2023) [nM] | IC50 [1] [nM] | SMILES | viability, T/C (compound 0.0316 µM) | viability, T/C (compound 0.1 µM) | viability, T/C (compound 0.316 µM) | viability, T/C (compound 1 µM) | viability, T/C (compound 3.16 µM) | viability, T/C (compound 10 µM) | IC50 (curve of compound) | viability, T/C (compound 0.00316 µM) | viability, T/C (compound 0.01 µM) | viability, T/C (compound 0.000316 µM) | viability, T/C (compound 0.001 µM)
1 | – | – | COc1cc(C2c3cc4c(cc3C(OC3OC5COC(C)OC5C(O)C3O)C3COC(=O)C23)OCO4)cc(OC)c1O (stereo unspecified) | 81.2% and 92.1% and 89.8% | 90% and 102% and 100% | 86.5% and 100% and 114% | 102% and 92.9% and 99.7% | 92.7% and 81% and 88.9% | 76.3% and 68.8% and 51.7% | > 10000 nM | – | – | – | –
2 | – | – | COc1cc2cc(C(=O)CCC(=O)O)sc2cc1OC | 102% and 105% and 95.7% | 99% and 93.1% and 94.9% | 85.6% and 113% and 104% | 107% and 89.6% and 100% | 106% and 100% and 91.6% | 98.2% and 83.3% and 99.8% | > 10000 nM | – | – | – | –
3 | – | – | COc1ccc([C@@H](O)c2cc(-c3ncnc4cc(N5CCOCC5)ccc34)c(F)cc2Cl)nn1 | 107% and 102% and 108% | 103% and 94.5% and 93.7% | 90.6% and 96.5% and 106% | 100% and 105% and 104% | 94.8% and 87.4% and 97.1% | 83.2% and 80.4% and 92% | > 10000 nM | – | – | – | –
4 | – | – | COc1cccc(OCCCN)c1-c1cc(Nc2cnc(C#N)cn2)n[nH]1 | 54.1% and 72% and 72.3% | 52.4% and 57.1% and 43.6% | 24.1% and 36.5% and 25.2% | 25.2% and 27.3% and 13.4% | – | – | 65.8 nM and 135 nM and 80.1 nM | 96.8% and 107% and 96.1% | 106% and 98.4% and 92.4% | – | –
5 | – | – | COc1cccc2c1C(=O)c1c(O)c3c(c(O)c1C2=O)CC(O)(C(=O)CO)CC3OC1CC(N)C(O)C(C)O1 (stereo unspecified) | 91.6% and 101% and 113% | 81.9% and 97% and 103% | 87.3% and 68.5% and 110% | 93.9% and 90% and 81.8% | 57.7% and 37.8% and 27.6% | 8.92% and 9.36% and 7.86% | 3790 nM and 2410 nM and 1970 nM | – | – | – | –
6 | > 10000 | > 10000 | Cc1cccc(N(C)C(=O)C2C(O)CCN2c2nc(C)cc(C(F)(F)F)c2C#N)c1 (stereo unspecified) | 97.6% [middle of 13 runs] | 98.6% [middle of 13 runs] | 97.3% [middle of 13 runs] | 101% [middle of 13 runs] | 101% [middle of 13 runs] | 96.9% [middle of 13 runs] | – | – | – | – | –
7 | – | – | Cn1ncnc1[C@H]1c2n[nH]c(=O)c3cc(F)cc(c23)N[C@@H]1c1ccc(F)cc1 | 104% and 106% and 100% | 94.7% and 98.2% and 90% | – | – | – | – | > 100 nM | 80.6% and 115% and 106% | 110% and 98.3% and 88.3% | 93.6% and 104% and 95.7% | 114% and 96.4% and 80.4%
8 | – | > 10000 | Nc1ccc(C#CCN(C(=O)Cc2ncc(C(F)(F)F)cc2C(F)(F)F)c2ccc(F)cc2)nn1 | 99.2% [middle of 13 runs] | 97.2% [middle of 13 runs] | 99.4% [middle of 13 runs] | – | 98.6% [middle of 13 runs] | 101% [middle of 13 runs] | – | – | – | – | –
9 | – | – | Nc1ccn(C2OC(CO)C(O)C2(F)F)c(=O)n1 (stereo unspecified) | 104% (2×) and 98.4% | 93.9% and 111% and 97.5% | 85.7% and 84.1% and 75% | 69.6% and 75.9% and 84.9% | 80.9% and 85.4% and 87.5% | 85% and 80% and 70.2% | > 10000 nM | – | – | – | –
10 | – | – | O=C(c1cc(Cc2n[nH]c(=O)c3ccccc23)ccc1F)N1CCN(C(=O)C2CC2)CC1 | 98.8% and 31.4% and 107% | 107% and 36% and 112% | 99.5% and 36% and 104% | 87.5% and 38% and 104% | 121% and 40.2% and 95.3% | 89.1% and 32.3% and 94.1% | – | – | – | – | –
11 | – | – | O=c1[nH]cc(F)c(=O)[nH]1 | 86.3% and 95% and 102% | 99.9% and 91.8% and 89.1% | 108% and 90% and 106% | 92.9% and 96.2% and 106% | 102% and 92% and 105% | 83.8% and 76.2% and 81.4% | > 10000 nM | – | – | – | –

From PubChem BioAssay AID1963825 (Molecular Pharmacology Branch, DTP, NCI, 2024)
